From patent publication US20090325891A1, “Cartilage regeneration-promoting agent” (EISAI FOOD & CHEMICAL CO., LTD., priority 2006, published 2009)
“Also recorded” adds a separate entry of the source.

Assays:
[1] = test system: articular cartilage injury of the knee in rabbits; experiment: Macroscopic degree of healing in rabbit articular cartilage injury model; format: in vivo; conditions: for Degree of healing Distal trochlear sulcus / Degree of healing Medial trochlear ridge / Degree of healing Proximal trochlear sulcus: individual rabbits, 3 weeks after operation; for average value of quantified data (degree of healing, points): − = 0 to +++ = 3 points
Protocol: The cartilage regeneration-promoting effect of hydroxytyrosol obtained in Production Example 1 was investigated using a rabbit articular cartilage injury model prepared experimentally.
Six female and six male rabbits (New Zealand white, 16 weeks old when introduced, body weight: from 2.00 kg to 2.55 kg) were habituated for one week under the conditions of one rabbit per cage, temperature: from 23° C. to 25° C., relative humidity: from 50% to 60%, a light/dark cycle of 12 h, 12 times air changes per hour). During this period, animals were fed with feed, which is sold commercially, and sterile tap water ad libitum.
After the period, rabbits were divided at random into two groups so that each group contains three female and three male rabbits. One group was designated as a control group and the other as a hydroxytyrosol administration group (hereinafter, HT group).
(§1) The rabbit articular cartilage injury model was prepared based on the method of Hashida et. al. (See, Macromolecular Bioscience, 3, (2003) 596-603), and Tamai et. al. (See, Carbohydrate Polymers, 48, (2002) 369-378, and Carbohydrate Polymers, 54, (2003) 251-262).
(§2) Initially, each animal was anesthetized by injecting pentobarbital sodium (40 mg/kg) intraperitoneally. Next, hairs at the knee joint of the left hind limb of the animal were clipped and disinfected with 0.5% chlorhexidine gluconate solution and 70% ethanol solution. Then, an incision was made on the skin on the lateral portion of the knee joint from the central part of the femur toward the tibial tuberosity. The articular capsule was exposed and incised. Further, the knee joint was exposed completely by dislocating the patella toward the medial side. Three holes of 2 mm size in diameter and 4 mm in depth were made by using a handdrill one at the medial trochlear ridge and two at the trochlear sulcus of the femur. The incised portion was washed with sterile saline solution and the articular capsule, and at the same time, the subcutaneous tissues and the skin were sutured with a synthetic absorbent thread and with nylon thread, respectively. During one week after the operation, the sutured portion of the skin was disinfected by povidone-iodine once a day and 10 mg/kg of oxytetracycline hydrochloride was subcutaneously administered twice a day.
(§3) After the formation of injury to articular cartilage, for the HT group, the product containing 20% by mass of hydroxytyrosol obtained in Production Example 1 was dissolved in tap water and administered using a water bottle at a rate of 500 mg/kg (100 mg/kg of hydroxytyrosol) per day for 21 days. After making sure that all of the water containing the drug was taken in, rabbits were fed with sterile tap water. The control was fed with sterile tap water ad libitum.
After the experimental period, all animals were euthanized by overdose using an intravenous injection of pentobarbital sodium (80 mg/kg). Then, knee joints were incised, and the conditions of joint cartilages were macroscopically observed. The degree, to which the injury of cartilage was healed, was evaluated based on the following standards.
• −: Degree of healing is less than 50% • +: Degree of healing is from 50% to 60% • ++: Degree of healing is from 60% to 80% • +++: Degree of healing is from 80% to 100%
Further, the above evaluation was assigned numbers: (−) was assigned with 0 point (+) was assigned with 1 point, (++) was assigned with 2 points, and (+++) was assigned with 3 points. The degree of healing of articular cartilage was expressed numerically, and Mann-Whitney's U test was performed between the control group and the HT group.
(§4) In the same way as in Example 1, the cartilage regeneration-promoting effects were investigated with respect to hydroxytyrosol (100 mg/kg per day, HT group) and with respect to glucosamine hydrochloride (800 mg/kg per day, hereinafter, GAH group) for comparison. The control group was set in the same way as in Example 1.

[2] = test system: articular cartilage injury of the knee in rabbits; experiment: Histopathological examination (hematoxylin/eosin) of injured knee articular cartilage; format: in vivo, rabbit; conditions: hematoxylin/eosin staining
Protocol: as §1, §2, §3
For each animal, femur was collected and fixed by a 10% neutral buffered forrnalin solution. […]

proteoglycan = experiment: Image analysis of Safranin O staining (proteoglycan) of knee articular cartilage; format: in vivo, rabbit
Protocol: as §1, §2, §3
The specimens stained with Safranin O and with Alcian blue were prepared in the same way as mentioned above and subjected to image analysis. The 200 times magnified images of specimens were scanned into the computer using a digital camera (Olympus DP70, manufactured by Olympus Corporation). Then, two locations (20,000 pixels) were randomly sampled, and the density of the site stained in a specific color (site stained with Safranin O:
corresponding to proteoglycan, site stained with Alcian blue: corresponding to glycosaminoglycan) was measured. For the obtained values, Student's t-test was performed between the control group and the HT group.
as §4

[3] = Example 2, HT 100 mg/kg per day, GAH 800 mg/kg per day, hydrochloride, female rabbits
[4] = Example 2, HT 100 mg/kg per day, GAH 800 mg/kg per day, hydrochloride, male rabbits
[5] = Example 2, injured site of cartilage
[6] = Example 1, 100 mg/kg of hydroxytyrosol per day for 21 days, 100 mg/kg
[7] = Example 2, HT 100 mg/kg per day, GAH 800 mg/kg per day, female rabbits
[8] = Example 2, HT 100 mg/kg per day, GAH 800 mg/kg per day, male rabbits

## Cl.N[C@H]1C(O)O[C@H](CO)[C@@H](O)[C@@H]1O (stereo partly drawn) [GAH group, glucosamine hydrochloride, reference compound]
[1]; Example 2, HT p<0.01, GAH p<0.05, hydrochloride
  cartilage healing / regeneration compared with the control group: promoted significantly
[1]; Example 2, HT p<0.01, GAH p<0.05, listed as glucosamine hydrochloride, hydrochloride
  cartilage healing / regeneration compared with the control group: promoted the regeneration of cartilage
[1]; [3]
  Degree of healing Distal trochlear sulcus: ++ (Degree of healing is from 60% to 80%); also recorded: +++ (Degree of healing is from 80% to 100%)
  Degree of healing Medial trochlear ridge: +++ (Degree of healing is from 80% to 100%)
  Degree of healing Proximal trochlear sulcus: ++ (Degree of healing is from 60% to 80%); also recorded: +++ (Degree of healing is from 80% to 100%)
[1]; [4]
  Degree of healing Distal trochlear sulcus: ++ (Degree of healing is from 60% to 80%); also recorded: + (Degree of healing is from 50% to 60%)
  Degree of healing Medial trochlear ridge: +++ (Degree of healing is from 80% to 100%); also recorded: ++ (Degree of healing is from 60% to 80%)
  Degree of healing Proximal trochlear sulcus: + (Degree of healing is from 50% to 60%); also recorded: +++ (Degree of healing is from 80% to 100%)
[1]; Example 2, control group 5.33
  average value of quantified data (degree of healing, points): 7.17
[2]; Example 2
  histopathological findings at the site at which injury was created: almost the same findings as those of the HT group
proteoglycan; [5]
  density at the site stained with Safranin O (proteoglycan), injured site of cartilage, vs control: significant increase
proteoglycan; Example 2
  density at the site stained with Safranin O, normal site and growth zone of cartilage, vs control: no difference

## OCCc1ccc(O)c(O)c1 [HT group, 2-(3,4-Dihydroxyphenyl)ethanol]
[1]; Example 1, Mann-Whitney's U test, p<0.05
  cartilage healing / regeneration compared with the control group: promoted significantly
[1]; Example 1, Mann-Whitney's U test, p<0.05, listed as hydroxytyrosol
  cartilage healing / regeneration compared with the control group: promoted the regeneration of cartilage
[1]; [6]
  Degree of healing Distal trochlear sulcus: +++ (Degree of healing is from 80% to 100%); also recorded: + (Degree of healing is from 50% to 60%); also recorded: ++ (Degree of healing is from 60% to 80%)
  Degree of healing Proximal trochlear sulcus: ++ (Degree of healing is from 60% to 80%); also recorded: +++ (Degree of healing is from 80% to 100%); also recorded: + (Degree of healing is from 50% to 60%)
[1]; Example 1, 100 mg/kg of hydroxytyrosol per day in drinking water for 21 days, 100 mg/kg
  Degree of healing Medial trochlear ridge: +++ (Degree of healing is from 80% to 100%); also recorded: ++ (Degree of healing is from 60% to 80%); also recorded: + (Degree of healing is from 50% to 60%)
[1]; Example 1, control group 4.83
  average value of quantified data (degree of healing, points): 7.17
[1]; Example 2, HT p<0.01, GAH p<0.05
  cartilage healing / regeneration compared with the control group: promoted significantly
[1]; Example 2, HT p<0.01, GAH p<0.05, listed as hydroxytyrosol
  cartilage healing / regeneration compared with the control group: promoted the regeneration of cartilage
[1]; [7]
  Degree of healing Distal trochlear sulcus: +++ (Degree of healing is from 80% to 100%)
  Degree of healing Medial trochlear ridge: +++ (Degree of healing is from 80% to 100%)
  Degree of healing Proximal trochlear sulcus: +++ (Degree of healing is from 80% to 100%); also recorded: ++ (Degree of healing is from 60% to 80%)
[1]; [8]
  Degree of healing Distal trochlear sulcus: +++ (Degree of healing is from 80% to 100%)
  Degree of healing Medial trochlear ridge: ++ (Degree of healing is from 60% to 80%); also recorded: +++ (Degree of healing is from 80% to 100%)
  Degree of healing Proximal trochlear sulcus: ++ (Degree of healing is from 60% to 80%); also recorded: +++ (Degree of healing is from 80% to 100%)
[1]; Example 2, control group 5.33
  average value of quantified data (degree of healing, points): 8.17
[2]; Example 1
  histopathological findings at the site at which injury was created: matured chondrocytes were found extensively
[2]; Example 2
  histopathological findings at the site at which injury was created: matured chondrocytes were found extensively
proteoglycan; Example 1
  density at the site stained with Safranin O, normal site and growth zone of cartilage, vs control: no difference
proteoglycan; Example 1, site of cartilage at which injury was created
  density at the site stained with Safranin O (proteoglycan), injured site of cartilage, vs control: significant increase
proteoglycan; [5]
  density at the site stained with Safranin O (proteoglycan), injured site of cartilage, vs control: significant increase
proteoglycan; Example 2
  density at the site stained with Safranin O, normal site and growth zone of cartilage, vs control: no difference
